According to ChEMBL document CHEMBL4270579, “Structure-activity relationship and conformational studies of the natural product cyclic depsipeptides YM-254890 and FR900359” (Eur J Med Chem, 2018):
*1 amine or outer side, *2 acyl side, *3 side chain or, on linkers, in order; H or OH if unused. Where a SMILES comes first, the peptide text is derived from it. Bridges are numbered along the chain shown (N, C = ends). [ ]: non-standard residue; d: D form. Leu(3R-O(AcLeu(3R-OH))) = CC(=O)N[C@H](C(=O)O[C@H](C(C)C)[C@H](N)C(=O)O)[C@H](O)C(C)C; X1 = CC(C)[C@@H](O[*:3])[C@H](N[*:1])C(=O)[*:2]; NMeT = CN[C@H](C(=O)O)[C@@H](C)O; dPhLac = O=C(O)[C@H](O)Cc1ccccc1; NMeA = CN[C@@H](C)C(=O)O; NMeDha = C=C(NC)C(=O)O

What was measured:
[1] = target: T1, Guanine nucleotide-binding protein subunit alpha-11 (Homo sapiens, UniProt P29992); assay: Inhibition of recombinant human Gq/11 coupled N-terminal 3His-tagged M1 receptor expressed in CHOK1 cells assessed as reduction in carbachol-induced IP1 accumulation pretreated for 1 hr followed by carbachol addition and subsequent incubation for 1 hr at 37 degC measured after 15 mins at room temperature by HTRF assay; assay type: cell-based
T1 sequence (P29992 whole entry): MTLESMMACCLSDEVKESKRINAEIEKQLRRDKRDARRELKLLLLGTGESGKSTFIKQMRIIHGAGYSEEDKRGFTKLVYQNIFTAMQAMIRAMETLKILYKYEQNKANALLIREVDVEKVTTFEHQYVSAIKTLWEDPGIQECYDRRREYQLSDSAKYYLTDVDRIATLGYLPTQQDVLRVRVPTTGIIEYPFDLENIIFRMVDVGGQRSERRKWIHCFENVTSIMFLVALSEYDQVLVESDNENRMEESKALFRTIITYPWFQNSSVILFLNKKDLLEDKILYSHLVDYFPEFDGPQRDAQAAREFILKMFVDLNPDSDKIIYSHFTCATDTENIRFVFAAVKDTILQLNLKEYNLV

[2] = target: Guanine nucleotide-binding protein G(s) subunit alpha isoforms XLas (Homo sapiens, UniProt Q5JWF2); assay: Inhibition of Gs coupled adrenergic beta2 receptor in HEK293 cells assessed as reduction in isoproterenol-induced cAMP production pretreated for 1 hr followed by isoproterenol addition and measured after 30 mins by FRET assay; assay type: cell-based
Chain of Guanine nucleotide-binding protein G(s) subunit alpha isoforms XLas (Q5JWF2 whole entry, canonical isoform): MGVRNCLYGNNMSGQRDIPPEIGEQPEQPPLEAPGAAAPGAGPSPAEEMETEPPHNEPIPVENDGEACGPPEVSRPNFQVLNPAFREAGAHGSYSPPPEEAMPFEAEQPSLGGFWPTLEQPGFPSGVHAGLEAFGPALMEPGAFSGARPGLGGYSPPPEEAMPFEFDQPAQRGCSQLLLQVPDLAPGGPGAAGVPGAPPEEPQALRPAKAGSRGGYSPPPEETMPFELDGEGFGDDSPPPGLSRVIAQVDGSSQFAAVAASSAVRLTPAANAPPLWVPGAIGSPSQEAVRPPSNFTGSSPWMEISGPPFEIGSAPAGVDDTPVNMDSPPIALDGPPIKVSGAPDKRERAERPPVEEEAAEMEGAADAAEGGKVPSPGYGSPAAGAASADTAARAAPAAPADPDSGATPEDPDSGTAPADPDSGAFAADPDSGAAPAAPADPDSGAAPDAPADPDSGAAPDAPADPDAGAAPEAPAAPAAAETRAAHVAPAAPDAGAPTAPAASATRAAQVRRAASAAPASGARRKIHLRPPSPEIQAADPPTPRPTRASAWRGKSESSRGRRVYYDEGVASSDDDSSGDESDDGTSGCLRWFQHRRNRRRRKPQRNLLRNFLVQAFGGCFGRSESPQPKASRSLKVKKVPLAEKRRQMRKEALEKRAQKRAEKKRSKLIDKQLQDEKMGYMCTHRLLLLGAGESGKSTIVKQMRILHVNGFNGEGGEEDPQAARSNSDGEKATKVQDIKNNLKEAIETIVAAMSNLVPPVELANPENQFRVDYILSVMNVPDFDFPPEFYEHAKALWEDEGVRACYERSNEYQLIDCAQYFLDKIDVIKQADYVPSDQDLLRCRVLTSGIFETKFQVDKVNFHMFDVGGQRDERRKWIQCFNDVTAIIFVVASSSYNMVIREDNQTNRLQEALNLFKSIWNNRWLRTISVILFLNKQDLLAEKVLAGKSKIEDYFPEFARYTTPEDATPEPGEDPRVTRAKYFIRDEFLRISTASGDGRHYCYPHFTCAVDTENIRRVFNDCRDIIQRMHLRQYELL

IC50 [1] [µM] | IC50 [2] [µM] | Structure (SMILES)
0.88 | > 100 | C=C1C(=O)N[C@@H](C)C(=O)N(C)[C@@H](C)C(=O)N[C@@H]([C@H](OC(=O)[C@@H](NC(=O)CCCCC)[C@H](O)C(C)C)C(C)C)C(=O)N(C)[C@@H]([C@@H](C)OC)C(=O)O[C@H](C)[C@H](NC(C)=O)C(=O)O[C@H](Cc2ccccc2)C(=O)N1C
> 50 | > 100 | CO[C@H](C)[C@H]1C(=O)O[C@H](C)[C@H](NC(C)=O)C(=O)O[C@H](CC(C)C)C(=O)N(C)[C@H](CO)C(=O)N[C@@H](C)C(=O)N(C)[C@@H](C)C(=O)N[C@@H]([C@H](OC(=O)[C@@H](NC(C)=O)[C@H](O)C(C)C)C(C)C)C(=O)N1C
1.89 | > 100 | C=C1C(=O)N[C@@H](C)C(=O)N(C)[C@@H](C)C(=O)N[C@@H]([C@H](OC(=O)[C@@H](NC(C)=O)[C@H](O)C(C)C)C(C)C)C(=O)N(C)[C@@H]([C@@H](C)OC)C(=O)OC[C@H](NC(C)=O)C(=O)O[C@H](Cc2ccccc2)C(=O)N1C
3.69 | > 100 | C=C1C(=O)N[C@@H](C)C(=O)N(C)[C@@H](C)C(=O)N[C@@H]([C@H](OC(=O)[C@@H](NC(C)=O)[C@H](O)C(C)C)C(C)C)C(=O)N(C)[C@@H]([C@@H](C)OC)C(=O)O[C@H](C)[C@H](NC(C)=O)C(=O)O[C@H](CC(C)C)C(=O)N1C
2.34 | > 100 | C=C1C(=O)N[C@@H](C)C(=O)N(C)[C@@H](C)C(=O)N[C@@H]([C@H](OC(=O)[C@@H](NC(=O)c2ccccc2)[C@H](O)C(C)C)C(C)C)C(=O)N(C)[C@@H]([C@@H](C)OC)C(=O)O[C@H](C)[C@H](NC(C)=O)C(=O)O[C@H](Cc2ccccc2)C(=O)N1C

Structure (SMILES) | IC50 [1] [µM] | IC50 [2] [µM]
C=C1C(=O)N[C@@H](C)C(=O)N(C)[C@@H](C)C(=O)N[C@@H]([C@H](OC(=O)[C@@H](NC(C)=O)[C@H](O)C(C)C)C(C)C)C(=O)N(C)[C@@H]([C@@H](C)OC)C(=O)O[C@@H](C)[C@H](NC(C)=O)C(=O)O[C@H](Cc2ccccc2)C(=O)N1C | > 50 | > 100
C=C1C(=O)N[C@@H](C)C(=O)N(C)[C@@H](C)C(=O)N[C@@H]([C@H](OC(=O)[C@@H](NC(C)=O)[C@H](O)C(C)C)C(C)C)C(=O)N(C)[C@@H]([C@@H](C)OC)C(=O)O[C@H](C)[C@H](NC(C)=O)C(=O)O[C@H](Cc2ccccc2)C(=O)N1C | 0.15 | > 100
C=C1C(=O)N[C@H](C)C(=O)N(C)[C@@H](C)C(=O)N[C@@H]([C@H](OC(=O)[C@@H](NC(C)=O)[C@H](O)C(C)C)C(C)C)C(=O)N(C)[C@@H]([C@@H](C)OC)C(=O)O[C@H](C)[C@H](NC(C)=O)C(=O)O[C@H](Cc2ccccc2)C(=O)N1C | 36.6 | –
C=C1C(=O)N[C@@H](C)C(=O)N(C)[C@@H](C)C(=O)N[C@@H]([C@H](OC(=O)[C@@H](NC(C)=O)[C@H](O)C(C)C)C(C)C)C(=O)N(C)[C@@H]([C@@H](C)OC)C(=O)O[C@H](C(C)C)[C@H](NC(C)=O)C(=O)O[C@H](Cc2ccccc2)C(=O)N1C (Ac-[X1][dPhLac][NMeDha]A[NMeA][Leu(3R-O(AcLeu(3R-OH)))][NMeT](Me); ester 1-C) | 0.31 | > 100
